Values belong to the compound of their own block, whether it stands above or below them.
Legend:
[1] = Chemical stability of the formulations (HPLC assay of the active agents); assay type: physicochemical
Experimental: The chemical stability is measured by assaying the active agents by external calibration in HPLC and the results are expressed as a % of […] relative to the theoretical value.

[2] = in all the solvents that may be used for retinoids; cited from earlier work
[3] = Rucinol solubilities in solvents (HPLC); assay type: physicochemical
[4] = Stability of rucinol in solvent oils and lipophilic surfactants (HPLC assay); assay type: physicochemical; conditions: T0 = 100%
Description: Assay technique by HPLC against reference substance.
The initial time (T0) is considered as 100%.

[5] = in composition of Example 3, 4° C., T + 1 M
[6] = in composition of Example 3, 4° C., T + 2 M
[7] = in composition of Example 3, 40° C., T + 1 M
[8] = in composition of Example 3, 40° C., T + 2 M
[9] = in composition of Example 3, RT, T0
[10] = in composition of Example 3, RT, T + 1 M
[11] = in composition of Example 3, RT, T + 2 M

- Chemical stability: adapalene assay, % relative to the theoretical value ([1]; in composition of Example 2, 40° C., T + 1 M): 92.4%
- Chemical stability: adapalene assay, % relative to the theoretical value ([1]; in composition of Example 2, 40° C., T + 2 M): 96.8%
- Chemical stability: adapalene assay, % relative to the theoretical value ([1]; in composition of Example 2, 40° C., T + 3 M): 94.5%
- Chemical stability: adapalene assay, % relative to the theoretical value ([1]; in composition of Example 2, RT, T + 1 M): 94%
- Chemical stability: adapalene assay, % relative to the theoretical value ([1]; in composition of Example 2, RT, T + 2 M): 97.4%
- Chemical stability: adapalene assay, % relative to the theoretical value ([1]; in composition of Example 2, RT, T + 3 M): 95.3%
- Chemical stability: adapalene assay, % relative to the theoretical value [1, 5]: 104%
- Chemical stability: adapalene assay, % relative to the theoretical value [1, 6]: 107.0%
- Chemical stability: adapalene assay, % relative to the theoretical value [1, 7]: 108%
- Chemical stability: adapalene assay, % relative to the theoretical value [1, 8]: 106.0%
- Chemical stability: adapalene assay, % relative to the theoretical value [1, 9]: 108.7%
- Chemical stability: adapalene assay, % relative to the theoretical value [1, 10]: 106%
- Chemical stability: adapalene assay, % relative to the theoretical value [1, 11]: 106.0%
SMILES: COc1ccc(-c2ccc3cc(C(=O)O)ccc3c2)cc1C12CC3CC(CC(C3)C1)C2 [Adapalene, 6-(3-(1-adamantyl)-4-methoxyphenyl)-2-naphthoic acid]
- Solubility of adapalene (in words) [2]: insoluble

- Max. solubility (% w/w) ([3]; in Arlamol E): 48.2 % w/w
- Max. solubility (% w/w) ([3]; in Caprylic capric triglycerides): 47.8 % w/w
- Max. solubility (% w/w) ([3]; in Castor oil): 46.4 % w/w
- Max. solubility (% w/w) ([3]; in Cremophor EL): 49.7 % w/w
- Max. solubility (% w/w) ([3]; in Crodamol DA): 64.1 % w/w
- Max. solubility (% w/w) ([3]; in Ethanol): >75.5 % w/w
- Max. solubility (% w/w) ([3]; in Glycerol): 63.8 % w/w
- Max. solubility (% w/w) ([3]; in Labrasol): 60.9 % w/w
- Max. solubility (% w/w) ([3]; in Lauroglycol): 52.8 % w/w
- Max. solubility (% w/w) ([3]; in PEG 400): 61.6 % w/w
- Max. solubility (% w/w) ([3]; in Propylene glycol): >67.7 % w/w
- Solubility of rucinol (in words) ([3]; in all the solvents tested): very good solubility
- T + 1 month (% LC) ([4]; in Arlamol E, 40° C.): 94.4 % LC
- T + 1 month (% LC) ([4]; in Arlamol E, RT): 95 % LC
- T + 1 month (% LC) ([4]; in Cremophor EL, 40° C.): 96.2 % LC
- T + 1 month (% LC) ([4]; in Cremophor EL, RT): 96 % LC
- T + 1 month (% LC) ([4]; in Ethanol, 40° C.): 105 % LC
- T + 1 month (% LC) ([4]; in Ethanol, RT): 100.4 % LC
- T + 1 month (% LC) ([4]; in Labrasol, 40° C.): 100.8 % LC
- T + 1 month (% LC) ([4]; in Labrasol, RT): 97.8 % LC
- T + 1 month (% LC) ([4]; in Miglyol, 40° C.): 99.8 % LC
- T + 1 month (% LC) ([4]; in Miglyol, RT): 91.2 % LC
- Chemical stability: rucinol assay, % relative to the theoretical value [1, 5]: 99.4%
- Chemical stability: rucinol assay, % relative to the theoretical value [1, 6]: 97.4%
- Chemical stability: rucinol assay, % relative to the theoretical value [1, 7]: 98.8%
- Chemical stability: rucinol assay, % relative to the theoretical value [1, 8]: 97.8%
- Chemical stability: rucinol assay, % relative to the theoretical value [1, 9]: 98.1%
- Chemical stability: rucinol assay, % relative to the theoretical value [1, 10]: 100.6%
- Chemical stability: rucinol assay, % relative to the theoretical value [1, 11]: 101.6%
SMILES: CCCCc1ccc(O)cc1O [Rucinol, 4-butylresorcinol]

Source: patent publication US20110319491A1, “ANHYDROUS DEPIGMENTING COMPOSITIONS COMPRISING, WITHIN THE FATTY PHASE THEREOF, A SOLUBILIZED PHENOLIC COMPOUND AND A RETINOID” (GALDERMA RESEARCH & DEVELOPMENT, priority 2009, published 2011)
